What was measured:
Human plasma ACE = target: T1, Human plasma ACE (Homo sapiens, UniProt P12821); experiment: Inhibitory potency in vitro: ACE assay with [3H]hippuryl-His-Leu substrate; assay type: biochemical; settings: hippuryl-His-Leu 1 x 10^-4 M, 0.05 M Hepes buffer pH 8.0, 15 minutes at 37°C, read-out: I50
T1 construct: Human plasma ACE was assayed in 0.05 M Hepes buffer, pH 8.0; from tissue; host or cells: human plasma
Procedure: The inhibitory potency of several compounds in vitro was measured in the following assay. Human plasma ACE was assayed in 0.05 M Hepes buffer, pH 8.0 containing 0.1 M NaCl and 0.75 M Na2SO4. The substrate employed was hippuryl-His-Leu at a final concentration-of 1 x 10^-4 M, (Km = 2 x 10^-4 M), together with about 130,000 cpm/50 µl of [^3Hlhippuryl-His-Leu (25 Ci/mmole). Enzyme was diluted in the above buffer such that 40 ul of buffered enzyme was capable of hydrolyzing 13% of substrate in a 15 minute incubation at 37°C. To initiate the assay, 40 µl of enzyme and 10 µl of buffer or inhibitor dissolved in buffer were preincubated for two minutes at 37°C. Substrate, 50 µl, was then added to initiate reaction and the solution was incubated for 15 minutes at 37°C. To terminate the reaction, 1 ml of 0:1 M HC1 was added, following which 1 ml of ethyl acetate was added. The mixture was
An aliquot, 500 ul. of the ethyl acetate layer was transferred to a liquid scintillation vial containing 10 ml of Riafluor, trademark New England Nuclear Corporation, Boston, Massachusetts. For determination of I50 values, enzyme activity in the presence of inhibitor at a series of different concentrations was compared to activity in the absence of inhibitor. A plot of log inhibitor concentration versus percent inhibition yielded the I50 value; the concentration of inhibitor required to reduce enzymic activity by 50%.

Rats = experiment: Intravenous effectiveness: blood pressure response to angiotensin I in anesthetized rats; assay type: in vivo; settings: 20 µmole/kg intravenously
Procedure: Rats (190-290 g body weight) were fasted overnight and then anesthetized with intraperitoneal pentobarbital, 50-60 mg/kg. Tracheostomy was performed and the animals were ventilated mechanically. A cannula was inserted into a femoral vein for injection of angiotensin I, and a second cannula was inserted into a common carotid artery for direct measurement of arterial blood pressure. Heparin, 1,000 units, was injected via the femoral vein to prevent coagulation. Blood pressure was measured with a pressure transducer connected to a polygraph. The rats were injected with […] of angiotensin I in 20 pl of 0.9 g % NaCl; an amount of angiotensin I sufficient to raise mean arterial blood pressure by approximately 40 mm Hg. After the responsiveness of a given rat to angiotensin I was established, the named compound at 20 µmole/kg (drug dissolved in 0.15 ml of H20 plus 10 µl of 1 N NaHC03), was given intravenously. At timed intervals, the effects of 400 ng/kg of angiotensin I on mean arterial blood pressure were tested.

[1] = Loss of activity of aqueous solution on standing under ambient conditions; assay type: physicochemical; settings: fresh aqueous solution, 1 mg per ml, pH of about 8, standing for as little as 30 minutes
Source text: In vitro study of the mechanism by which SQ14225 and its analogs act to inhibit ACE has been somewhat hampered by the instability of these molecules under ambient conditions.

T1 sequence (P12821 30-1232 limits assumed): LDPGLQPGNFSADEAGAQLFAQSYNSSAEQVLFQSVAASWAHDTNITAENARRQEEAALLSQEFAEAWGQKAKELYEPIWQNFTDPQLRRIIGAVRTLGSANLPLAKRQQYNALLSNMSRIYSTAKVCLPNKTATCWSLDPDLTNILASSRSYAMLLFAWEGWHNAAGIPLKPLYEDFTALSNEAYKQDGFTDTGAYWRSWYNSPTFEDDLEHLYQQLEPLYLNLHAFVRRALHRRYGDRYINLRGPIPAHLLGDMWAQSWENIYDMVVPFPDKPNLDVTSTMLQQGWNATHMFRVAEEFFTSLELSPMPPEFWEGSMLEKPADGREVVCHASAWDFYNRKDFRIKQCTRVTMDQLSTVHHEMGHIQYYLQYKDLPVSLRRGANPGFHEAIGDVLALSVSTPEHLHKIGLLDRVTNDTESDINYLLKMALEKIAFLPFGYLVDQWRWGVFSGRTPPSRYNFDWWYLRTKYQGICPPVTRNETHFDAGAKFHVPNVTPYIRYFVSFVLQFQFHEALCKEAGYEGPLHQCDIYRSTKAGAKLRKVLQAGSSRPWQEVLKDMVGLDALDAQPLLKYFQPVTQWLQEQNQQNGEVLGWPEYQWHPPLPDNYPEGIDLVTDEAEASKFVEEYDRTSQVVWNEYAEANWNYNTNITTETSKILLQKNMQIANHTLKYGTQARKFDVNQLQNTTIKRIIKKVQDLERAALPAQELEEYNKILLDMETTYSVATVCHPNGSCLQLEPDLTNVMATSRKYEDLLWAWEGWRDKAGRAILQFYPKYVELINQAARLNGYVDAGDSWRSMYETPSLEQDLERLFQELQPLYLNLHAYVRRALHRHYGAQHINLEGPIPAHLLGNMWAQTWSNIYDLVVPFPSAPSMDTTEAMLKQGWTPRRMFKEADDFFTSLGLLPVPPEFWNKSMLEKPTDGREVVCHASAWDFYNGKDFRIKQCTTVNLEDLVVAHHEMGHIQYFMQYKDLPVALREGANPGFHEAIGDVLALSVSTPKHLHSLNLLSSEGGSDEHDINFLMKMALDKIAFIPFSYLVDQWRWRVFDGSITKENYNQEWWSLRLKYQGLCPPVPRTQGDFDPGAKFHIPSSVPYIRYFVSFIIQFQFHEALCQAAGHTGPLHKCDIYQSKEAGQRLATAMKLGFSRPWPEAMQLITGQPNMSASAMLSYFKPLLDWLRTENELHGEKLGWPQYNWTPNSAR

SMILES	IC50 (Human plasma ACE) [µM]	also measured
CC(N[C@@H](C)C(=O)N1CCC[C@H]1C(=O)O)C(=O)O (stereo partly drawn) [N-(1-carboxyethyl)-L-alanyl-L-proline, reference compound]	0.008	
CCOC(=O)C(C)N[C@@H](C)C(=O)N1CCC[C@H]1C(=O)O (stereo partly drawn) [N-(1-ethoxycarbonylethyl)-L-alanyl-L-proline]	0.06	
CC(O)CC(SC(C)C(=O)N1CCC[C@H]1C(=O)O)C(=O)O (stereo partly drawn) [N-[2-(1-carboxy-3-hydroxy-butylthio)-propanoyl]-L-proline]	0.03	
CC(SC[C@@H](C)C(=O)N1CCC[C@H]1C(=O)O)C(=O)O (stereo partly drawn) [N-[3-(1-carboxyethylthio)-2-D-methylpropanoyl]-L-proline]	1.5	Blood Pressure Reponse to 400 ng/kg of Angiotensin I (% of Control) (Rats; 8 minutes after IV administration): 62.5 % of Control; Blood Pressure Reponse to 400 ng/kg of Angiotensin I (% of Control) (Rats; 15 minutes after IV administration): 37.5 % of Control; Blood Pressure Reponse to 400 ng/kg of Angiotensin I (% of Control) (Rats; 21 minutes after IV administration): 37.5 % of Control; Blood Pressure Reponse to 400 ng/kg of Angiotensin I (% of Control) (Rats; +2 minutes after IV administration): 67.5 % of Control
C[C@H](CS)C(=O)N1CCC[C@H]1C(=O)O [SQ14225]		activity of aqueous solution upon standing [1]: substantially less active

More lines, main results first:

IC50 (Human plasma ACE) [µM]	SMILES	also measured
0.4	CC(SC(C)C(=O)N1CCC[C@H]1C(=O)O)C(=O)O (stereo partly drawn) [N-[2-(1-carboxyethylthio)-propanoyl]-L-proline]	
0.13	CC1CC(SC(C)C(=O)N2CCC[C@H]2C(=O)O)C(=O)O1 (stereo partly drawn) [N-[2-(tetrahydro-5-methyl-2-furanone-3-thio)-propanoyl]-L-proline]	

Source: EP0048159A2, “Novel carboxyalkyl peptides and thioethers and ethers of peptides as antihypertensive agents” (UNIVERSITY OF MIAMI, priority 1980, dated 1982)
